In patent US8703722B2, “Inhibitors of F18+ E coli binding” (priority 2008, dated 2014):

Legend:
[1] = test system: F18 positive reference E. coli strain (107/86); test: In vitro villous adhesion assay after treatment of porcine villi with agents; format: cell-based, Escherichia coli; settings: villi of four pigs treated 1 h at room temperature; 1% Triton X-100; 10 mM NaIO4 in 0.2M sodium acetate pH 4.5
Text: (§1) The nature of the F18R on porcine small intestinal villous enterocytes was investigated using an in vitro villous adhesion inhibition assay (Cox, E., Houvenaghel, A., 1993. Vet. Microbiol. 34(1), 7-18; Verdonck, F., Cox, E., van Gog, K., Van der Stede, Y., Duchateau, L., Deprez, P., Goddeeris, B. M., 2002. Vaccine 20(23-24), 2995-3004). Briefly, a 20 cm intestinal segment was collected from the mid jejunum of a euthanized pig, rinsed three times with ice cold PBS, and fixed with Krebs-Henseleit buffer (160 mM, pH 7.4) containing 1% (v/v) formaldehyde for 30 min at 4° C. Thereafter, the villi were gently scraped from the mucosae with a glass slide and stored in Krebs-Henseleit buffer at 4° C. Treatment of villi with acetone, methanol, 1% Triton® X-100, 10 mM NaIO4 in 0.2M sodium acetate, pH 4.5, or 0.2M sodium acetate, pH 4.5, without NaIO4, respectively, was performed at room temperature on a rotating wheel in a volume of 500 μl during 1 h. Next, the villi were washed 6 times with Krebs-Henseleit buffer followed by addition of 4×10^8 bacteria of the F18 positive reference E. coli strain (107/86), or the F4ac-expressing E. coli strain GIS 26, to an average of 50 villi in a total volume of 500 μl PBS, supplemented with 1% (w/v) D-mannose in order to prevent adhesion mediated by type 1 pili. These mixtures were incubated at room temperature for 1 h while being gently shaken. Villi were examined by phase-contrast microscopy at a magnification of 600, and the number of bacteria adhering along 50 μm brush border was quantitatively evaluated by counting the number of adhering bacteria at 20 randomly selected places, after which the mean bacterial adhesion was calculated.
(§2) To examine the character of the F18R, intestinal villi isolated from four pigs were treated with different agents that affect lipids or carbohydrates on the enterocyte cell membrane. Treatment was followed by assessment of adhesion of F18-fimbriated E. coli to the villus epithelium.

[2] = test system: F4ac-expressing E. coli strain GIS 26; test: In vitro villous adhesion assay after treatment of porcine villi with agents (control strain); format: cell-based, Escherichia coli; settings: villi treated 1 h at room temperature; 1% Triton X-100; 10 mM NaIO4 in 0.2M sodium acetate pH 4.5
Text: as §1, §2

Compound | Adhesion of F18-fimbriated E. coli to porcine intestinal villi after treatment of the villi [1] | Adhesion of control F4ac-fimbriated E. coli strain to porcine intestinal villi after treatment of the villi [2]
CO [methanol] | completely abolished | no or only little effect
Triton® X-100 | completely abolished | no or only little effect
